Measurements reported in PubChem BioAssay (NCI).
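Values below derive from 48-hour exposures of cells grown in 96-well plates, with endpoints linearly interpolated between the two concentrations bracketing the appropriate inhibition level. At the GI50, growth is halved. TGI denotes the concentration required for complete inhibition of growth.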

Tests used:
Assay in all cases: NCI anticancer screen, dose series, 48 h
HCC-2998 colon = system: HCC-2998 colon
786-0 renal = system: 786-0 renal
HOP-92 NSCLC = system: HOP-92 NSCLC
K-562 leukemia = system: K-562 leukemia
LOX IMVI melanoma = system: LOX IMVI melanoma
A498 renal = system: A498 renal
SK-MEL-28 melanoma = system: SK-MEL-28 melanoma
OVCAR-8 ovarian = system: OVCAR-8 ovarian
KM12 colon = system: KM12 colon
TK-10 renal = system: TK-10 renal
SK-MEL-5 melanoma = system: SK-MEL-5 melanoma
SW-620 colon = system: SW-620 colon
MCF7 breast = system: MCF7 breast
NCI-H522 lung = system: NCI-H522 lung
HT29 colon = system: HT29 colon
NCI-H226 lung = system: NCI-H226 lung
EKVX NSCLC = system: EKVX NSCLC
T-47D breast = system: T-47D breast
CAKI-1 renal = system: CAKI-1 renal
UACC-257 melanoma = system: UACC-257 melanoma
DU-145 prostate = system: DU-145 prostate
MDA-MB-231 breast = system: MDA-MB-231 breast
ACHN renal = system: ACHN renal
HS 578T breast = system: HS 578T breast
PC-3 prostate = system: PC-3 prostate
SF-295 CNS = system: SF-295 CNS
UO-31 renal = system: UO-31 renal
HCT-15 colon = system: HCT-15 colon
U251 CNS = system: U251 CNS
SN12C renal = system: SN12C renal
UACC-62 melanoma = system: UACC-62 melanoma
HOP-62 NSCLC = system: HOP-62 NSCLC
MDA-MB-435 = system: MDA-MB-435
SNB-75 CNS = system: SNB-75 CNS
HL-60(TB) leukemia = system: HL-60(TB) leukemia
SF-268 CNS = system: SF-268 CNS
NCI/ADR-RES ovarian = system: NCI/ADR-RES ovarian
HCT-116 colon = system: HCT-116 colon
OVCAR-5 ovarian = system: OVCAR-5 ovarian
SF-539 CNS = system: SF-539 CNS
SK-MEL-2 melanoma = system: SK-MEL-2 melanoma
SK-OV-3 ovarian = system: SK-OV-3 ovarian
IGROV1 ovarian = system: IGROV1 ovarian
NCI-H23 lung = system: NCI-H23 lung
RXF 393 renal = system: RXF 393 renal
MALME-3M melanoma = system: MALME-3M melanoma
M14 melanoma = system: M14 melanoma
CCRF-CEM leukemia = system: CCRF-CEM leukemia
BT-549 breast = system: BT-549 breast
SNB-19 CNS = system: SNB-19 CNS
A549 NSCLC = system: A549 NSCLC
COLO 205 colon = system: COLO 205 colon
RPMI-8226 leukemia = system: RPMI-8226 leukemia
SR leukemia = system: SR leukemia
OVCAR-3 ovarian = system: OVCAR-3 ovarian
OVCAR-4 ovarian = system: OVCAR-4 ovarian
NCI-H460 lung = system: NCI-H460 lung
MOLT-4 leukemia = system: MOLT-4 leukemia

## NS(=O)(=O)c1ccc(Nc2ncc(-c3ccccc3)o2)cc1
HCC-2998 colon
  GI50: > 25 µM
  TGI: > 25 µM
786-0 renal
  GI50: > 25 µM
  TGI: > 25 µM
HOP-92 NSCLC
  GI50: > 25 µM
  TGI: > 25 µM
K-562 leukemia
  GI50: > 25 µM
  TGI: > 25 µM
LOX IMVI melanoma
  GI50: > 25 µM
  TGI: > 25 µM
A498 renal
  GI50: > 19.6 µM
  TGI: > 25 µM
SK-MEL-28 melanoma
  GI50: > 25 µM
  TGI: > 25 µM
OVCAR-8 ovarian
  GI50: > 25 µM
  TGI: > 25 µM
KM12 colon
  GI50: > 25 µM
  TGI: > 25 µM
TK-10 renal
  GI50: > 25 µM
  TGI: > 25 µM
SK-MEL-5 melanoma
  GI50: > 25 µM
  TGI: > 25 µM
SW-620 colon
  GI50: > 22.1 µM
  TGI: > 25 µM
MCF7 breast
  GI50: > 25 µM
  TGI: > 25 µM
NCI-H522 lung
  GI50: > 25 µM
  TGI: > 25 µM
HT29 colon
  GI50: > 25 µM
  TGI: > 25 µM
NCI-H226 lung
  GI50: > 25 µM
  TGI: > 25 µM
EKVX NSCLC
  GI50: > 25 µM
  TGI: > 25 µM
T-47D breast
  GI50: > 25 µM
  TGI: > 25 µM
CAKI-1 renal
  GI50: > 25 µM
  TGI: > 25 µM
UACC-257 melanoma
  GI50: > 25 µM
  TGI: > 25 µM
DU-145 prostate
  GI50: > 25 µM
  TGI: > 25 µM
MDA-MB-231 breast
  GI50: > 25 µM
  TGI: > 25 µM
ACHN renal
  GI50: > 25 µM
  TGI: > 25 µM
HS 578T breast
  GI50: 20.5 µM
  TGI: > 25 µM
PC-3 prostate
  GI50: > 25 µM
  TGI: > 25 µM
SF-295 CNS
  GI50: > 25 µM
  TGI: > 25 µM
UO-31 renal
  GI50: > 25 µM
  TGI: > 25 µM
HCT-15 colon
  GI50: > 25 µM
  TGI: > 25 µM
U251 CNS
  GI50: > 25 µM
  TGI: > 25 µM
SN12C renal
  GI50: > 25 µM
  TGI: > 25 µM
UACC-62 melanoma
  GI50: > 25 µM
  TGI: > 25 µM
HOP-62 NSCLC
  GI50: > 25 µM
  TGI: > 25 µM
MDA-MB-435
  GI50: > 25 µM
  TGI: > 25 µM
SNB-75 CNS
  GI50: > 9.68 µM
  TGI: > 25 µM
HL-60(TB) leukemia
  GI50: > 25 µM
  TGI: > 25 µM
SF-268 CNS
  GI50: > 25 µM
  TGI: > 25 µM
NCI/ADR-RES ovarian
  GI50: > 25 µM
  TGI: > 25 µM
HCT-116 colon
  GI50: > 25 µM
  TGI: > 25 µM
OVCAR-5 ovarian
  GI50: > 25 µM
  TGI: > 25 µM
SF-539 CNS
  GI50: > 22.9 µM
  TGI: > 25 µM
SK-MEL-2 melanoma
  GI50: > 25 µM
  TGI: > 25 µM
SK-OV-3 ovarian
  GI50: > 25 µM
  TGI: > 25 µM
IGROV1 ovarian
  GI50: > 25 µM
  TGI: > 25 µM
NCI-H23 lung
  GI50: > 25 µM
  TGI: > 25 µM
RXF 393 renal
  GI50: > 25 µM
  TGI: > 25 µM
MALME-3M melanoma
  GI50: > 25 µM
  TGI: > 25 µM
M14 melanoma
  GI50: > 25 µM
  TGI: > 25 µM
CCRF-CEM leukemia
  GI50: > 25 µM
  TGI: > 25 µM
BT-549 breast
  GI50: > 25 µM
  TGI: > 25 µM
SNB-19 CNS
  GI50: > 25 µM
  TGI: > 25 µM
A549 NSCLC
  GI50: > 25 µM
  TGI: > 25 µM
COLO 205 colon
  GI50: > 23.7 µM
  TGI: > 25 µM
RPMI-8226 leukemia
  GI50: > 25 µM
  TGI: > 25 µM
SR leukemia
  GI50: 9.69 µM
  TGI: > 25 µM
OVCAR-3 ovarian
  GI50: > 25 µM
  TGI: > 25 µM
OVCAR-4 ovarian
  GI50: > 25 µM
  TGI: > 25 µM
NCI-H460 lung
  GI50: > 25 µM
  TGI: > 25 µM
MOLT-4 leukemia
  GI50: > 25 µM
  TGI: > 25 µM

## CCSc1ccc2c(c1)N(CCCN1CCN(C)CC1)c1ccccc1S2
HCC-2998 colon
  GI50: 1.7 µM
  TGI: 3.28 µM
786-0 renal
  GI50: 2.61 µM
  TGI: 7.6 µM
HOP-92 NSCLC
  GI50: 1.85 µM
  TGI: 7.06 µM
K-562 leukemia
  GI50: 2.39 µM
  TGI: > 100 µM
LOX IMVI melanoma
  GI50: 1.67 µM
  TGI: 3.16 µM
A498 renal
  GI50: 1.83 µM
  TGI: 10.2 µM
SK-MEL-28 melanoma
  GI50: 1.73 µM
  TGI: 3.27 µM
OVCAR-8 ovarian
  GI50: 4.39 µM
  TGI: 10.9 µM
KM12 colon
  GI50: 1.87 µM
  TGI: 3.56 µM
TK-10 renal
  GI50: 1.73 µM
  TGI: 3.27 µM
SK-MEL-5 melanoma
  GI50: 1.73 µM
  TGI: 3.16 µM
SW-620 colon
  GI50: 1.88 µM
  TGI: 3.65 µM
MCF7 breast
  GI50: 1.79 µM
  TGI: 3.43 µM
NCI-H522 lung
  GI50: 1.7 µM
  TGI: 3.5 µM
HT29 colon
  GI50: 1.81 µM
  TGI: 3.44 µM
NCI-H226 lung
  GI50: 7.17 µM
  TGI: 27.5 µM
EKVX NSCLC
  GI50: 6.04 µM
  TGI: 22.6 µM
T-47D breast
  GI50: 2.17 µM
  TGI: 5.79 µM
CAKI-1 renal
  GI50: 1.75 µM
  TGI: 4.19 µM
UACC-257 melanoma
  GI50: 1.81 µM
  TGI: 3.48 µM
DU-145 prostate
  GI50: 3.82 µM
  TGI: 14.2 µM
MDA-MB-231 breast
  GI50: 2 µM
  TGI: 4.95 µM
ACHN renal
  GI50: 2.49 µM
  TGI: 6.83 µM
HS 578T breast
  GI50: 2 µM
  TGI: 5.56 µM
PC-3 prostate
  GI50: 2.74 µM
  TGI: 9.64 µM
SF-295 CNS
  GI50: 2.2 µM
  TGI: 5.97 µM
UO-31 renal
  GI50: 2.1 µM
  TGI: 10.1 µM
HCT-15 colon
  GI50: 2.06 µM
  TGI: 4.98 µM
U251 CNS
  GI50: 2.05 µM
  TGI: 4.64 µM
SN12C renal
  GI50: 4.54 µM
  TGI: 18.4 µM
UACC-62 melanoma
  GI50: 1.67 µM
  TGI: 3.34 µM
HOP-62 NSCLC
  GI50: 2.84 µM
  TGI: 8.15 µM
MDA-MB-435
  GI50: 1.72 µM
  TGI: 3.47 µM
SNB-75 CNS
  GI50: 1.79 µM
  TGI: 5.5 µM
HL-60(TB) leukemia
  GI50: 1.83 µM
  TGI: 4.61 µM
SF-268 CNS
  GI50: 3.96 µM
  TGI: 16.9 µM
NCI/ADR-RES ovarian
  GI50: 3.68 µM
  TGI: 16.8 µM
HCT-116 colon
  GI50: 2.04 µM
  TGI: 4.4 µM
OVCAR-5 ovarian
  GI50: 2.19 µM
  TGI: 6.44 µM
SF-539 CNS
  GI50: 1.83 µM
  TGI: 3.76 µM
SK-MEL-2 melanoma
  GI50: 3.25 µM
  TGI: 8.49 µM
SK-OV-3 ovarian
  GI50: 10.4 µM
  TGI: 24 µM
IGROV1 ovarian
  GI50: 2.19 µM
  TGI: 5.41 µM
NCI-H23 lung
  GI50: 6.58 µM
  TGI: 21.3 µM
RXF 393 renal
  GI50: 2.82 µM
  TGI: 8.88 µM
MALME-3M melanoma
  GI50: 1.58 µM
  TGI: 3.35 µM
M14 melanoma
  GI50: 1.88 µM
  TGI: 3.67 µM
CCRF-CEM leukemia
  GI50: 2.56 µM
  TGI: 7.1 µM
BT-549 breast
  GI50: 4.75 µM
  TGI: 18.9 µM
SNB-19 CNS
  GI50: 3.16 µM
  TGI: 12 µM
A549 NSCLC
  GI50: 3.21 µM
  TGI: 10.5 µM
COLO 205 colon
  GI50: 1.76 µM
  TGI: 3.37 µM
RPMI-8226 leukemia
  GI50: 2.46 µM
  TGI: 6.96 µM
SR leukemia
  GI50: 2.71 µM
  TGI: 8.65 µM
OVCAR-3 ovarian
  GI50: 2.48 µM
  TGI: 7.12 µM
OVCAR-4 ovarian
  GI50: 3.63 µM
  TGI: 12.3 µM
NCI-H460 lung
  GI50: 1.87 µM
  TGI: 3.53 µM
MOLT-4 leukemia
  GI50: 2.64 µM
  TGI: 6.53 µM
